This passage reports outcome, EC50 and IC50 results from PubChem BioAssay AID179 (DTP/NCI, 2004).

Calls of active or inactive are those of the source.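 The calls were made as follows: active = compounds giving half or more protection of infected cells from virus-caused growth loss, again on retest; inactive = the rest.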 Where a SMILES comes first, the peptide text is derived from it.

The test system of this test is CEM cells HIV-1 protection, formazan growth assay. Put plainly: NCI AIDS Antiviral Assay. Particulars: for IC50: measured here: growth of uninfected CEM cells. Put shortly:
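CEM (human) cells, HIV-1 infected vs uninfected, 5-point dosing, formazan growth read-out. Retest threshold 50% protection.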

A word on the EC50: it is the midpoint of the concentration-response curve. Usually IC50 stands for the point on the concentration scale where inhibition reaches its midpoint. Higher therefore signals a need for much substance.

Regarding `CC(C)CCCC(C)[C@H]1CCC2[C@@H]3CCC4Nc5[nH]ncc5C[C@]4(C)C3CC[C@@]21C` (stereo partly specified), the outcome was inactive. `COC(=O)C1=C(C(=O)Nc2cccnc2Cl)N(c2ccc(OC)cc2[N+](=O)[O-])C(c2ccc(C)cc2)=CC1c1ccc(OC)cc1OC` (stereo unspecified): the EC50 was greater than 100 µM and the IC50 is 1.95 µM. On the same counts, the results for `CN1C2CCC1[C@@H](CO)[C@@H](O)C2` (stereo partly specified) are greater than 1200 µM and greater than 1200 µM. On the same counts, the results for `COC1=C(C)C(=O)c2c(c(COC(N)=O)c3n2CC(OC(C)=O)C3OC(C)=O)C1=O` (stereo unspecified) are greater than 2 µM and 0.178 µM. On the same counts, the results for `CSc1nnc(SCc2nn3c(=O)cc(C)nc3s2)s1` are greater than 200 µM and greater than 200 µM. For the molecule `CN(C)[C@@H]1C(=O)C(C(=O)NCNC2(C(=O)O)CCCC2)=C(O)[C@@]2(O)C(=O)C3=C(O)c4c(O)cccc4[C@@](C)(O)[C@H]3C[C@@H]12`, the EC50 was greater than 214 µM and the IC50 was determined as 117 µM. On the same counts, the results for `Cn1c(=O)oc2nc(-c3ccccc3)cc(C(F)(F)F)c21` are greater than 200 µM and 19.1 µM.

With `COc1ccc2c3c([nH]c2c1[N+](=O)[O-])C(C)N(Cc1ccccc1)CC3` (stereo unspecified), the result was inactive. Take `CC(=O)Oc1c2c(c(CC=C(C)C)c3c1C(=O)C1=C[C@@H]4CC5C(C)(C)OC(C/C=C(/C)C(=O)O)(C4=O)[C@@]15O3)OC(C)(CCC=C(C)C)C=C2` (stereo partly specified): the EC50 was greater than 2 µM and the IC50 amounted to 0.324 µM. As for `COC(=O)C1=C(OC)C(=P2(c3ccccc3)CC(c3ccccc3)=C2c2ccccc2)C(C(=O)OC)=C1C(=O)OC` (stereo unspecified), the result was inactive. On to `CCOC(=O)C1=C(Nc2cccc(OC)c2)OCC1=O`, for which the EC50 was greater than 200 µM and the IC50 is greater than 200 µM. On to `CC#N.CC#N.COC(=O)[C@@H]1CN(C(=O)c2ccccc2)C(=O)[N-]1.COC(=O)[C@@H]1CN(C(=O)c2ccccc2)C(=O)[N-]1.COC(=O)[C@@H]1CN(C(=O)c2ccccc2)C(=O)[N-]1.COC(=O)[C@@H]1CN(C(=O)c2ccccc2)C(=O)[N-]1.[Rh+2].[Rh+2]`, for which the EC50 was 10.7 µM and the IC50 is 87.1 µM.

For `CC(=O)NC(ON1C(=O)COc2ccccc21)C(Cl)(Cl)Cl` (stereo unspecified), the EC50 was greater than 100 µM and the IC50 is greater than 100 µM.

For `O=C1OCOC1C1OCOC1=O` (stereo unspecified), the EC50 is greater than 200 µM and the IC50 stood at 19.1 µM. The corresponding values for `COc1ccc(NS(=O)c2c(C)cc(C)cc2C)cc1` (stereo unspecified) are greater than 200 µM and 12 µM. The corresponding values for `COC(=O)CC(NC(=O)OCc1ccccc1)C(C(=O)OCc1ccccc1)C(C)(OC)OC` (stereo unspecified) are greater than 50.1 µM and 20.4 µM. `O=C1CSc2nc3ccccc3n2/C=N\N1`: the EC50 was greater than 200 µM and the IC50 is greater than 200 µM. Take `Cc1ccc(NC(=O)C(=O)Cc2cc[n+]([O-])cc2)cc1`: the EC50 was greater than 47.9 µM and the IC50 is greater than 47.9 µM. With `CC(=O)N1C2=CCCC2(C)c2ccccc21` (stereo unspecified), the EC50 is greater than 200 µM and the 50% inhibitory concentration (IC50) amounted to 56.2 µM. The corresponding values for `N#CC(C#N)=C1SC(=Nc2ccccc2)C(=Nc2ccccc2)N1c1ccccc1` are greater than 200 µM and 1 µM.

As to `Clc1ccc2nncc(N3CC3)c2c1`, the outcome was inactive. In the case of `CN1C(=O)C(C(C)(C)C2SC(=S)N(C)C2=O)SC1=S` (stereo unspecified), the EC50 is greater than 200 µM and the IC50 is greater than 200 µM.

In the case of `CCN(CC)CCNc1ccc2ncn3c4cc(OC)c(OC)c(=O)c4c(O)c1c23`, the EC50 was greater than 50.1 µM and the IC50 was found to be 0.589 µM. For the molecule `O=C1c2scnc2-c2nccc3c2c1nc1ccccc13`, the EC50 was greater than 2.51 µM and the IC50 was determined as 0.457 µM. With `COc1cccc(/C=C2\CCCCCC2=O)c1`, the EC50 was greater than 200 µM and the IC50 amounted to 40.7 µM.

With `COc1ccc(C(=O)/C=C/c2ccc(OCCCOc3ccc(/C=C/C(=O)c4ccc(OC)cc4)cc3)cc2)cc1`, the EC50 is greater than 200 µM and the IC50 is greater than 200 µM.

As for `COc1ccc(-c2nnc3cc(C)n4nnnc4n23)cc1OC`, the EC50 was greater than 200 µM and the IC50 was greater than 200 µM.

For `Cc1oc2cc(O)cc(O)c2c(=O)c1C`, the EC50 was greater than 200 µM and the IC50 was determined as 155 µM.

In the case of `NCCC=C(c1cc(Cl)c(O)c(C(=O)O)c1)c1cc(Cl)c(O)c(C(=O)O)c1`, the EC50 is 151 µM and the half-maximal inhibitory concentration (IC50) is greater than 200 µM. For the molecule `C#CCNC(Cc1ccccc1)C(=O)O` (stereo unspecified), the EC50 is greater than 200 µM and the IC50 was greater than 200 µM. For `N#C/C(=C\c1ccc2[nH]ccc2c1)C(=O)c1ccc(O)c(O)c1`, the EC50 is greater than 589 µM and the IC50 came to 102 µM. On the same counts, the results for `O=C1Cc2csc3nc(=O)cc(n23)N1` are greater than 120 µM and greater than 120 µM.

As to `C=C1CC2OC2(C(=O)O[C@H]2CCC3[C@@H]4CCC5=CC(=O)CC[C@]5(C)C4CC[C@@]32C)C1=O` (stereo partly specified), the EC50 is greater than 200 µM and the IC50 was 7.24 µM. For `C=CCCC(OCOCCOC)c1cc(C)c(O[Si](C)(C)C(C)(C)C)c(C)c1` (stereo unspecified), the EC50 is greater than 50.1 µM and the IC50 stood at 29.5 µM. The corresponding values for `CCCCNc1nc(C#N)c(N)s1` are greater than 1260 µM and 204 µM. On the same counts, the results for `CCOC1(OCC)C([N+](=O)[O-])=CC(=[N+]([O-])O)C=C1[N+](=O)[O-]` are greater than 724 µM and 204 µM.

`CCc1nc2ccccn2n1`: the EC50 is greater than 200 µM and the IC50 was greater than 200 µM. `CC(C)(NC(=O)C(C)(C)NC(=O)OCc1ccccc1)C(=O)O` (HELM PEPTIDE1{[O=C(OCc1ccccc1)[*:2]].[Aib].[Aib]}$$$$V2.0): the EC50 was greater than 200 µM and the IC50 was greater than 200 µM. For the molecule `CCCCCCCC(=O)OCC1OC(n2cc(F)c(=O)[nH]c2=O)C(N)C(OC(=O)CCCCCCC)C1O` (stereo unspecified), the EC50 was greater than 47.9 µM and the IC50 was found to be 38.9 µM.

With `S=C=Nc1ccc(CSc2nc3ccccc3[nH]2)cc1`, the result was inactive. As to `C=C1CC[C@@H]2C(C)(C)C(O)CCC2(C)C1COc1ccc2ccc(=O)oc2c1` (stereo partly specified), the EC50 is greater than 67.6 µM and the half-inhibitory concentration (IC50) was found to be 36.3 µM.

For the molecule `Cc1cc(C)nc(NS(=O)(=O)c2ccc(NC(=O)c3cccc4c(Nc5ccc(S(=O)(=O)Nc6nc(C)cc(C)n6)cc5)c5ccccc5nc34)cc2)n1`, the EC50 is greater than 33.9 µM and the IC50 amounted to 30.2 µM.

Regarding `CCCCCCCCC(C)CCCCCCCCC(=O)O` (stereo unspecified), the outcome was inactive. `O=c1c2ccccc2c2cc3ccc4c(=O)c5ccccc5c5cc6ccc1c2c6c3c45`: the EC50 is greater than 200 µM and the IC50 is greater than 200 µM. Take `COc1ccc2[nH]c(=O)cc(C)c2c1[N+](=O)[O-]`: the outcome was inactive. With `COc1ccc(/C=N/NC(=S)Nc2ccccc2)cc1`, the EC50 was greater than 200 µM and the IC50 is greater than 200 µM. For `CC(C)Oc1ccc(CNC2=NCCO2)c2ccccc12`, the EC50 was greater than 200 µM and the IC50 was 17.8 µM. As for `CCCCCCN=Cc1c(O)c(O)c(C(C)C)c2cc(C)c(-c3c(C)cc4c(C(C)C)c(O)c(O)c(C=NCCCCCC)c4c3O)c(O)c12`, the EC50 was greater than 200 µM and the half-inhibitory concentration (IC50) stood at 129 µM.

Consider `c1c[se]c(-c2nc3ccccc3[nH]2)c1`, for which the EC50 is greater than 69.2 µM and the IC50 is greater than 69.2 µM. For the molecule `O=C1C2c3[nH]c4ccccc4c3C3CCCCC3C2C(=O)N1c1ccccc1` (stereo unspecified), the result was inactive.

On to `CN(/N=C/c1cccs1)c1ccc([N+](=O)[O-])cc1[N+](=O)[O-]`, for which the EC50 was greater than 200 µM and the half-inhibitory concentration (IC50) was determined as 107 µM. The corresponding values for `C=C(CC[C@@H](O)C(Cl)CO)[Si](C)(C)C` (stereo partly specified) are greater than 110 µM and greater than 110 µM.

As for `COc1ccc(-c2nc(N)c(C#N)c3c2CCS(=O)(=O)c2ccc(C)cc2-3)cc1OC`, the EC50 is greater than 200 µM and the 50% inhibitory concentration (IC50) was determined as 11.2 µM. The corresponding values for `N#Cc1ccc(C2ON=C(c3ccccc3)N2C23CC4CC(CC(C4)C2)C3)cc1` (stereo unspecified) are greater than 200 µM and 151 µM. On the same counts, the results for `COc1cc(C(c2ccc3c(c2)OCO3)N2C(=O)CCC2C(=O)O)cc(OC)c1OC` (stereo unspecified) are greater than 200 µM and greater than 200 µM. Take `CCOC(=O)NC(=O)c1cn(CC(=O)NCC(=O)NCC(=O)NCCCN2CCN(CCCNC(=O)CNC(=O)CNC(=O)Cn3cc(C(=O)NC(=O)OCC)c(=O)[nH]c3=O)CC2)c(=O)[nH]c1=O`: the outcome was inactive. With `CCOC(=O)CN=C1Nc2ccccc2C(=O)N2CSCC12` (stereo unspecified), the EC50 was greater than 200 µM and the IC50 stood at 158 µM.

Regarding `NC1=NS(=O)(=O)N=C(N)C1=Cc1ccc([N+](=O)[O-])o1`, the EC50 is greater than 871 µM and the IC50 turned out to be 4.9 µM. On the same counts, the results for `c1ccc2c(c1)[nH]c1c2c(N2CCOCC2)nn2cnnc12` are greater than 200 µM and greater than 200 µM. The corresponding values for `O=c1cc(NNc2cccc(F)c2)[nH]c(=O)[nH]1` are greater than 200 µM and 1.1 µM.

Regarding `O=C1C=C(NC(c2ccccc2)c2nc3ccccc3[nH]2)C(c2ccccc2)N1c1ccccc1` (stereo unspecified), the outcome was inactive.

Take `C1C2CC3CC1CC(c1nn4c(C56CC7CC(CC(C7)C5)C6)nnc4s1)(C2)C3`: the EC50 was greater than 200 µM and the 50% inhibitory concentration (IC50) is greater than 200 µM. Regarding `Cc1cccc(C)c1NC(=O)C(=O)CC(=O)c1sc(Nc2c(C)cccc2C)nc1C`, the EC50 was greater than 200 µM and the IC50 is greater than 200 µM. As for `Cn1nc2c(c(Cl)c1=O)Nc1ccccc1O2`, the EC50 is greater than 200 µM and the IC50 is greater than 200 µM.

`O=S1(=O)Oc2cccc3cccc1c23`: the outcome was inactive. Take `O=c1c2cc3c(=O)n4c(cc(-c5ccccc5)c5cc(Cl)ccc54)nc3cc2nc2cc(-c3ccccc3)c3cc(Cl)ccc3n12`: the EC50 is greater than 100 µM and the IC50 was greater than 100 µM. With `O=c1c2cc3c(=O)n(-c4ccccc4Cl)c(=O)c3cc2c(=O)n1-c1ccccc1Cl`, the EC50 was greater than 40.7 µM and the IC50 was greater than 40.7 µM. As to `C=C(C)C(O)C(OCC)c1c(OC)ccc2ccc(=O)oc12` (stereo unspecified), the EC50 is greater than 200 µM and the IC50 is greater than 200 µM. For `O=C1c2ccccc2C(=O)N1CCN(CCN1C(=O)c2ccccc2C1=O)Cn1cccn1`, the outcome was inactive.
